PubChem BioAssay (NCI)
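Each compound was tested at five concentrations against cells in 96-well plates for 48 hours. GI50: concentration for 50% inhibition of growth. TGI: total growth inhibition.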

Assays:
Test in all cases: inhibition of tumour cell growth, NCI panel, 48 h; in the data active means GI50 below about 0.43 µM; inactive means the rest
SK-MEL-28 melanoma = system: SK-MEL-28 melanoma
SF-268 CNS = system: SF-268 CNS
M14 melanoma = system: M14 melanoma
SF-295 CNS = system: SF-295 CNS
MDA-MB-435 = system: MDA-MB-435
SK-MEL-2 melanoma = system: SK-MEL-2 melanoma
NCI-H460 lung = system: NCI-H460 lung
HS 578T breast = system: HS 578T breast
EKVX NSCLC = system: EKVX NSCLC
HOP-92 NSCLC = system: HOP-92 NSCLC
UACC-62 melanoma = system: UACC-62 melanoma
A549 NSCLC = system: A549 NSCLC
HL-60(TB) leukemia = system: HL-60(TB) leukemia
SNB-75 CNS = system: SNB-75 CNS
DU-145 prostate = system: DU-145 prostate
HOP-62 NSCLC = system: HOP-62 NSCLC
NCI-H522 lung = system: NCI-H522 lung
MOLT-4 leukemia = system: MOLT-4 leukemia
UO-31 renal = system: UO-31 renal
LOX IMVI melanoma = system: LOX IMVI melanoma
A498 renal = system: A498 renal
HT29 colon = system: HT29 colon
CAKI-1 renal = system: CAKI-1 renal
NCI-H23 lung = system: NCI-H23 lung
BT-549 breast = system: BT-549 breast
KM12 colon = system: KM12 colon
HCT-116 colon = system: HCT-116 colon
PC-3 prostate = system: PC-3 prostate
UACC-257 melanoma = system: UACC-257 melanoma
MCF7 breast = system: MCF7 breast
IGROV1 ovarian = system: IGROV1 ovarian
T-47D breast = system: T-47D breast
SK-OV-3 ovarian = system: SK-OV-3 ovarian
CCRF-CEM leukemia = system: CCRF-CEM leukemia
HCC-2998 colon = system: HCC-2998 colon
RPMI-8226 leukemia = system: RPMI-8226 leukemia
SW-620 colon = system: SW-620 colon
U251 CNS = system: U251 CNS
SN12C renal = system: SN12C renal
HCT-15 colon = system: HCT-15 colon
K-562 leukemia = system: K-562 leukemia
MDA-MB-231 breast = system: MDA-MB-231 breast
786-0 renal = system: 786-0 renal
RXF 393 renal = system: RXF 393 renal
NCI/ADR-RES ovarian = system: NCI/ADR-RES ovarian
MALME-3M melanoma = system: MALME-3M melanoma
SR leukemia = system: SR leukemia
ACHN renal = system: ACHN renal
SF-539 CNS = system: SF-539 CNS
OVCAR-4 ovarian = system: OVCAR-4 ovarian
OVCAR-5 ovarian = system: OVCAR-5 ovarian
SK-MEL-5 melanoma = system: SK-MEL-5 melanoma
TK-10 renal = system: TK-10 renal
SNB-19 CNS = system: SNB-19 CNS
OVCAR-3 ovarian = system: OVCAR-3 ovarian
COLO 205 colon = system: COLO 205 colon
OVCAR-8 ovarian = system: OVCAR-8 ovarian
NCI-H226 lung = system: NCI-H226 lung

N#Cc1cccc(/C(N)=N/C(N)=N/c2nc3ccccc3s2)c1
9330 nM: TGI (SNB-75 CNS)
11600 nM: TGI (A498 renal)
> 72600 nM: TGI (SNB-19 CNS)
inactive: GI50 (SK-MEL-28 melanoma) 5330 nM | GI50 (SF-268 CNS) 1700 nM | GI50 (M14 melanoma) 513 nM | GI50 (SF-295 CNS) 504 nM | GI50 (SK-MEL-2 melanoma) 1330 nM | GI50 (NCI-H460 lung) 479 nM | GI50 (HS 578T breast) 531 nM | GI50 (EKVX NSCLC) 2410 nM | GI50 (HOP-92 NSCLC) 2750 nM | GI50 (A549 NSCLC) 3480 nM | GI50 (DU-145 prostate) 1560 nM | GI50 (HOP-62 NSCLC) 609 nM | GI50 (NCI-H522 lung) 481 nM | GI50 (MOLT-4 leukemia) 657 nM | GI50 (UO-31 renal) 1810 nM | GI50 (LOX IMVI melanoma) 614 nM | GI50 (A498 renal) 1130 nM | GI50 (HT29 colon) 450 nM | GI50 (CAKI-1 renal) 538 nM | GI50 (NCI-H23 lung) 1790 nM | GI50 (BT-549 breast) 1030 nM | GI50 (KM12 colon) 511 nM | GI50 (HCT-116 colon) 487 nM | GI50 (PC-3 prostate) 840 nM | GI50 (UACC-257 melanoma) > 100000 nM | GI50 (MCF7 breast) 427 nM | GI50 (IGROV1 ovarian) 826 nM | GI50 (T-47D breast) 659 nM | GI50 (SK-OV-3 ovarian) 1790 nM | GI50 (CCRF-CEM leukemia) 551 nM | GI50 (HCC-2998 colon) 2850 nM | GI50 (RPMI-8226 leukemia) 686 nM | GI50 (SW-620 colon) 485 nM | GI50 (U251 CNS) 591 nM | GI50 (SN12C renal) 1130 nM | GI50 (HCT-15 colon) 443 nM | GI50 (MDA-MB-231 breast) 2640 nM | GI50 (786-0 renal) 733 nM | GI50 (NCI/ADR-RES ovarian) 437 nM | GI50 (MALME-3M melanoma) 1570 nM | GI50 (SR leukemia) 437 nM | GI50 (ACHN renal) 855 nM | GI50 (SF-539 CNS) 457 nM | GI50 (OVCAR-4 ovarian) 2740 nM | GI50 (OVCAR-5 ovarian) 3650 nM | GI50 (SK-MEL-5 melanoma) 699 nM | GI50 (TK-10 renal) 9170 nM | GI50 (SNB-19 CNS) 614 nM | GI50 (OVCAR-3 ovarian) 508 nM | GI50 (COLO 205 colon) 1020 nM | GI50 (OVCAR-8 ovarian) 1590 nM | GI50 (NCI-H226 lung) 1220 nM
> 77700 nM: TGI (786-0 renal)
> 60700 nM: TGI (SK-MEL-2 melanoma)
2420 nM: TGI (RXF 393 renal)
> 43300 nM: TGI (HS 578T breast)
18200 nM: TGI (HOP-62 NSCLC)
> 54400 nM: TGI (U251 CNS)
active: GI50 (MDA-MB-435) 211 nM | GI50 (UACC-62 melanoma) 418 nM | GI50 (HL-60(TB) leukemia) 311 nM | GI50 (SNB-75 CNS) 213 nM | GI50 (K-562 leukemia) 316 nM | GI50 (RXF 393 renal) 388 nM
> 92400 nM: TGI (TK-10 renal)
> 25600 nM: TGI (MOLT-4 leukemia)
> 41000 nM: TGI (SF-295 CNS)
> 60600 nM: TGI (HOP-92 NSCLC)
> 28200 nM: TGI (SK-MEL-5 melanoma)
40700 nM: TGI (SK-OV-3 ovarian)
> 66700 nM: TGI (MALME-3M melanoma)
4050 nM: TGI (SF-539 CNS)
> 71500 nM: TGI (UACC-62 melanoma)
> 34300 nM: TGI (CAKI-1 renal)
776 nM: TGI (MDA-MB-435)
> 59300 nM: TGI (BT-549 breast)
> 23200 nM: TGI (OVCAR-3 ovarian)
73800 nM: TGI (NCI-H226 lung)
> 100000 nM: TGI (SK-MEL-28 melanoma) | TGI (M14 melanoma) | TGI (NCI-H460 lung) | TGI (EKVX NSCLC) | TGI (A549 NSCLC) | TGI (DU-145 prostate) | TGI (NCI-H522 lung) | TGI (UO-31 renal) | TGI (LOX IMVI melanoma) | TGI (HT29 colon) | TGI (NCI-H23 lung) | TGI (KM12 colon) | TGI (HCT-116 colon) | TGI (PC-3 prostate) | TGI (UACC-257 melanoma) | TGI (MCF7 breast) | TGI (IGROV1 ovarian) | TGI (T-47D breast) | TGI (CCRF-CEM leukemia) | TGI (HCC-2998 colon) | TGI (RPMI-8226 leukemia) | TGI (SW-620 colon) | TGI (SN12C renal) | TGI (HCT-15 colon) | TGI (K-562 leukemia) | TGI (MDA-MB-231 breast) | TGI (NCI/ADR-RES ovarian) | TGI (SR leukemia) | TGI (ACHN renal) | TGI (OVCAR-4 ovarian) | TGI (OVCAR-5 ovarian) | TGI (COLO 205 colon) | TGI (OVCAR-8 ovarian)
> 71700 nM: TGI (SF-268 CNS)
